In general, EC50 refers to the midpoint of the concentration-response curve. Low readings indicate higher potency in that assay, high ones lower potency in that assay.

The values below come from patent US20220089575A1, “FARNESOID X RECEPTOR AGONISTS AND USES THEREOF” (Metacrine, Inc., priority 2017, published 2022).

Where only a bound is given, the exact number is not on record here.

The test deals with T1, hFXR (Homo sapiens, UniProt Q96RI1).
T1 construct: expressed in transfected cells; host or cells: CV-1 cells
T1 sequence (Q96RI1 1-486): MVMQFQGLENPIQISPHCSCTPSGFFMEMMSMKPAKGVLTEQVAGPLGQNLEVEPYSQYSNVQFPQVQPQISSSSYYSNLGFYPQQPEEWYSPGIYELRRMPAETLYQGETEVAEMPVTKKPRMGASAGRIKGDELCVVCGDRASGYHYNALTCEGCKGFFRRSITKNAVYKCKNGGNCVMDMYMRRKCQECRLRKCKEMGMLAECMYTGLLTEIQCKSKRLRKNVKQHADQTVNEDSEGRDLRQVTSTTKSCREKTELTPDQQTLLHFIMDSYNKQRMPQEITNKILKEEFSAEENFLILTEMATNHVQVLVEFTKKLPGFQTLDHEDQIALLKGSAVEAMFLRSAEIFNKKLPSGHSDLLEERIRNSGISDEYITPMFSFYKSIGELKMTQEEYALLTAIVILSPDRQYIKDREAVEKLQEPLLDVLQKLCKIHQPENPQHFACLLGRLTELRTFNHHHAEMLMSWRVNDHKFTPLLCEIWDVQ
T1 sequence (P19793 1-462 partner): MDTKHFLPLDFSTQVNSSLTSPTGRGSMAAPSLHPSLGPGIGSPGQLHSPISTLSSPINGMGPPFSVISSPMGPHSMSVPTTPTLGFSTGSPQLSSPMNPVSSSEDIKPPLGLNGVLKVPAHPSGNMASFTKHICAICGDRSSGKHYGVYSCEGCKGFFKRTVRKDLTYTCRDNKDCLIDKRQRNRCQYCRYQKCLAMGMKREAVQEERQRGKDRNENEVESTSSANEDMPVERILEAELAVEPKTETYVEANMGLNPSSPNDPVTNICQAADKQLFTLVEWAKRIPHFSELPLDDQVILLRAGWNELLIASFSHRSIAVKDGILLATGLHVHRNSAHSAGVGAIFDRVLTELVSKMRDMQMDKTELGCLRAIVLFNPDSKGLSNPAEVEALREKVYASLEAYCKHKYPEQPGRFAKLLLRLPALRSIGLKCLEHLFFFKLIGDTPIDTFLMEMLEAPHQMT
As to the kind of experiment: In Vitro FXR Assay (TK): TK-ECRE-luc reporter in transfected CV-1 cells. The class given is cell-based. Conditions: 18 hrs, luminescence, maximum efficacy of <25% of the Fexarmine control classified as '+'. The method in brief: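 CV-1 cells transiently co-transfected with hFXR, hRXR, TK-ECRE-luc and pCMX-YFP plasmids in charcoal-stripped serum medium. Serially diluted compounds added, cells incubated 18 h at 37° C, then lysed and luminescence read.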
In the case of `COc1ccc([C@H]2CC[C@H](CN(c3cc(-c4coc(C5CC5)n4)ccn3)C(=O)[C@H]3CC[C@H](OC(=O)N4CC(OC(C)C)C4)CC3)CC2)nc1C` [Compound 7.91, trans-4-((4-(2-Cyclopropyloxazol-4-yl)pyridine-2-yl)((trans-4-(5-methoxy-6-methylpyridin-2-yl)cyclohexyl)methyl)carbamoyl)cyclohexyl 3-isopropoxyazetidine-1-carboxylate], the EC50 is at most 250 nM.
`COc1ncc([C@H]2CC[C@H](CN(c3cc(-c4coc(C5CC5)n4)ccn3)C(=O)[C@H]3CC[C@H](OC(=O)N4CC(N(C)C)C4)CC3)CC2)cc1C` [Compound 7.92, trans-4-((4-(2-Cyclopropyloxazol-4-yl)pyridine-2-yl)((trans-4-(6-methoxy-5-methylpyridin-3-yl)cyclohexyl)methyl)carbamoyl)cyclohexyl 3-(dimethylamino)azetidine-1-carboxylate] yielded an EC50 of at most 250 nM.
For the compound `COc1ncc([C@H]2CC[C@H](CN(c3cc(-c4coc(C5CC5)n4)ccn3)C(=O)[C@H]3CC[C@H](OC(=O)N4CC(OC)C4)CC3)CC2)cc1C` [Compound 7.93, trans-4-((4-(2-Cyclopropyloxazol-4-yl)pyridine-2-yl)((trans-4-(6-methoxy-5-methylpyridin-3-yl)cyclohexyl)methyl)carbamoyl)cyclohexyl 3-methoxyazetidine-1-carboxylate], the EC50 was at most 250 nM.
The compound `COc1ncc([C@H]2CC[C@H](CN(c3cc(-c4coc(C5CC5)n4)ccn3)C(=O)[C@H]3CC[C@H](OC(=O)N4CC(O)C4)CC3)CC2)cc1C` [Compound 7.94, trans-4-((4-(2-Cyclopropyloxazol-4-yl)pyridine-2-yl)((trans-4-(6-methoxy-5-methylpyridin-3-yl)cyclohexyl)methyl)carbamoyl)cyclohexyl 3-hydroxyazetidine-1-carboxylate] showed an EC50 of at most 250 nM.
The compound `COCCOC1CN(C(=O)O[C@H]2CC[C@H](C(=O)N(C[C@H]3CC[C@H](c4ccc(OC)c(C)n4)CC3)c3cc(-c4coc(C5CC5)n4)ccn3)CC2)C1` [Compound 7.95, trans-4-((4-(2-Cyclopropyloxazol-4-yl)pyridine-2-yl)((trans-4-(5-methoxy-6-methylpyridin-2-yl)cyclohexyl)methyl)carbamoyl)cyclohexyl 3-(2-methoxyethoxy)azetidine-1-carboxylate] returned an EC50 of at most 250 nM.
Turning to `COc1ccc([C@H]2CC[C@H](CN(c3cc(-c4coc(C5CC5)n4)ccn3)C(=O)[C@H]3CC[C@@H](OC(=O)N4CC(O)C4)CC3)CC2)nc1C` [Compound 7.96, 4-(4-(2-Cyclopropyloxazol-4-y)pyridine-2-yl)((4-(5-methoxy-6-methylpyridin-2-yl)cyclohexyl)methyl)carbamoyl) cyclohexyl-cis-3-hydroxyazetidine-1-carboxylate], the EC50 fell in the range of 250 to 1000 nM.
As to `COc1ccc([C@H]2CC[C@H](CN(c3cc(-c4coc(C(C)C)n4)ccn3)C(=O)[C@H]3CC[C@H](OC(=O)N4CC(CO)C4)CC3)CC2)nc1C` [Compound 7.97, trans-4-((4-(2-Isopropyloxazol-4-yl)pyridine-2-yl)((trans-4-(5-methoxy-6-methylpyridin-2-yl)cyclohexyl)methyl)carbamoyl)cyclohexyl 3-(hydroxymethyl)azetidine-1-carboxylate], the 50% effective concentration (EC50) was at most 250 nM.
The same measure for `C#CC1CN(C(=O)O[C@H]2CC[C@H](C(=O)N(C[C@H]3CC[C@H](c4ccc(OC)c(C)n4)CC3)c3cc(-c4coc(C5CC5)n4)ccn3)CC2)C1` [Compound 7.98, trans-4-((4-(2-Cyclopropyloxazol-4-yl)pyridine-2-yl)((trans-4-(5-methoxy-6-methylpyridin-2-yl)cyclohexyl)methyl)carbamoyl)cyclohexyl 3-ethynylazetidine-1-carboxylate]: at most 250 nM; for `COc1ccc([C@H]2CC[C@H](CN(c3cc(-c4coc(C5CC5)n4)ccn3)C(=O)[C@H]3CC[C@H](OC(=O)N4CC(C(C)(C)O)C4)CC3)CC2)nc1C` [Compound 7.99, trans-4-((4-(2-Cyclopropyloxazol-4-yl)pyridine-2-yl)((trans-4-(5-methoxy-6-methylpyridin-2-yl)cyclohexyl)methyl)carbamoyl)cyclohexyl 3-(2-hydroxypropan-2-yl)azetidine-1-carboxylate]: at most 250 nM; for `CCC1CN(C(=O)O[C@H]2CC[C@H](C(=O)N(C[C@H]3CC[C@H](c4ccc(OC)c(C)n4)CC3)c3cc(-c4coc(C(C)C)n4)ccn3)CC2)C1` [Compound 7.100, trans-4-((4-(2-Isopropyloxazol-4-yl)pyridine-2-yl)((trans-4-(5-methoxy-6-methylpyridin-2-yl)cyclohexyl)methyl)carbamoyl)cyclohexyl 3-ethylazetidine-1-carboxylate]: at most 250 nM.
On to `COc1ccc([C@H]2CC[C@H](CN(c3cc(-c4coc(C5CC5)n4)ccn3)C(=O)[C@H]3CC[C@H](OC(=O)N4CC(CS(C)(=O)=O)C4)CC3)CC2)nc1C` [Compound 7.101, trans-4-((4-(2-Cyclopropyloxazol-4-yl)pyridine-2-yl)((trans-4-(5-methoxy-6-methylpyridin-2-yl)cyclohexyl)methyl)carbamoyl)cyclohexyl 3-((methylsulfonyl)methyl)azetidine-1-carboxylate], for which the EC50 was at most 250 nM.
The same measure for `COc1ccc([C@H]2CC[C@H](CN(c3cc(-c4coc(C5CC5)n4)ccn3)C(=O)[C@H]3CC[C@H](OC(=O)N4CC(C(C)C)C4)CC3)CC2)nc1C` [Compound 7.102, trans-4-((4-(2-Cyclopropyloxazol-4-yl)pyridine-2-yl)((trans-4-(5-methoxy-6-methylpyridin-2-yl)cyclohexyl)methyl)carbamoyl)cyclohexyl 3-isopropylazetidine-1-carboxylate]: at most 250 nM; for `COc1ccc([C@H]2CC[C@H](CN(c3cc(-c4coc(C5CC5)n4)ccn3)C(=O)[C@H]3CC[C@H](OC(=O)N4CC(C(C)(C)C)C4)CC3)CC2)nc1C` [Compound 7.103, trans-4-((4-(2-Cyclopropyloxazol-4-yl)pyridine-2-yl)((trans-4-(5-methoxy-6-methylpyridin-2-yl)cyclohexyl)methyl)carbamoyl)cyclohexyl 3-(tert-butyl)azetidine-1-carboxylate]: at most 250 nM; for `CCCOC1CN(C(=O)O[C@H]2CC[C@H](C(=O)N(C[C@H]3CC[C@H](c4ccc(OC)c(C)n4)CC3)c3cc(-c4coc(C5CC5)n4)ccn3)CC2)C1` [Compound 7.104, trans-4-((4-(2-Cyclopropyloxazol-4-yl)pyridine-2-yl)((trans-4-(5-methoxy-6-methylpyridin-2-yl)cyclohexyl)methyl)carbamoyl)cyclohexyl 3-propoxyazetidine-1-carboxylate]: at most 250 nM.
`CCCC1CN(C(=O)O[C@H]2CC[C@H](C(=O)N(C[C@H]3CC[C@H](c4ccc(OC)c(C)n4)CC3)c3cc(-c4coc(C5CC5)n4)ccn3)CC2)C1` [Compound 7.105, trans-4-((4-(2-Cyclopropyloxazol-4-yl)pyridin-2-yl)((trans-4-(5-methoxy-6-methylpyridin-2-yl)cyclohexyl)methyl)carbamoyl)cyclohexyl 3-propylazetidine-1-carboxylate]: the EC50 is at most 250 nM.
